Measurements: the supplement of paper PMC8671470

How the values were obtained:
Details in all cases: 72 h
[1] = system: myeloid leukemia patient primary cells Pat.4; assay: cell viability (% survival relative to DMSO control); higher = less cytotoxic
In short: (§1)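 Where an area under the curve appears, it was computed with the drc and PharmacoGx R packages from log-logistic fits. Those fits used four parameters. The underlying viability data came from CellTiter-Glo after 72 h, normalised to DMSO and 10 μM proteasome-inhibitor wells, with thawed, Ficoll-purified AML or CML patient mononuclear cells at 10,000 cells/well in RPMI 1640 with 10% FBS on 384-well plates pre-printed with 70 compounds at five tenfold concentrations (1–10,000 nM) in duplicate.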

[2] = system: myeloid leukemia patient primary cells Pat.5; assay: as above
In short: as §1

[3] = system: myeloid leukemia patient primary cells Pat.6; assay: as above
In short: as §1

[4] = system: myeloid leukemia patient primary cells Pat.7; assay: as above
In short: as §1

[5] = system: myeloid leukemia patient primary cells Pat.8; assay: as above
In short: as §1

[6] = system: myeloid leukemia patient primary cells Pat.9; assay: as above
In short: as §1

[7] = system: KU-812; assay: cell viability (% survival relative to DMSO control, bortezomib = 0%); higher = less cytotoxic
In short: (§2)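 Fifteen myeloid leukaemia cell lines (10 AML, 5 CML) were seeded at a density titrated to the linear growth range into 384-well plates pre-printed with compounds at 1, 10, 100, 1000 or 10000 nM in duplicate. Plates were incubated for 72 h at 37 °C with 5% CO2. Viability was then read by CellTiter-Glo luminescence. Each value is percent survival averaged over the duplicates, with vehicle set to 100% and a 10 µM positive control to 0%.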

[8] = system: MOLM-13; assay: as above
In short: as §2

[9] = system: NOMO-1; assay: as above
In short: as §2

[10] = system: THP-1; assay: as above
In short: as §2

O=c1[nH]c(=O)n([C@H]2C[C@H](O)[C@@H](CO)O2)cc1I [Idoxuridine]
cell viability ([1]; 100 nM): 89.8% | cell viability ([1]; 1000 nM): 68.2% | cell viability ([1]; 10000 nM): 93.1% | cell viability ([2]; 1 nM): 45.5% | cell viability ([2]; 10 nM): 10.2% | cell viability ([2]; 100 nM): 87.4% | cell viability ([2]; 1000 nM): 17.2% | cell viability ([2]; 10000 nM): 46.7% | cell viability ([3]; 1 nM): 97.7% | cell viability ([3]; 10 nM): 97.7% | cell viability ([3]; 100 nM): 99.8% | cell viability ([3]; 1000 nM): 83.2% | cell viability ([3]; 10000 nM): > 100% | cell viability ([4]; 1 nM): 77.4% | cell viability ([4]; 10 nM): 69.3% | cell viability ([4]; 100 nM): 83.4% | cell viability ([4]; 1000 nM): 63% | cell viability ([4]; 10000 nM): > 100% | cell viability ([5]; 1 nM): 96.3% | cell viability ([5]; 10 nM): > 100% | cell viability ([5]; 100 nM): 76.2% | cell viability ([5]; 1000 nM): 68.1% | cell viability ([5]; 10000 nM): 93.1% | cell viability ([6]; 1 nM): 34.8% | cell viability ([6]; 10 nM): 59.9% | cell viability ([6]; 100 nM): 68.1% | cell viability ([6]; 1000 nM): 35.5% | cell viability ([6]; 10000 nM): 70.3% | cell viability ([7]; 1 nM): 92.9% | cell viability ([7]; 10 nM): 95.9% | cell viability ([7]; 100 nM): 102% | cell viability ([7]; 1000 nM): 88.6% | cell viability ([7]; 10000 nM): 66.5% | cell viability ([8]; 1 nM): 116% | cell viability ([8]; 10 nM): 91.2% | cell viability ([8]; 100 nM): 94.1% | cell viability ([8]; 1000 nM): 83.5% | cell viability ([8]; 10000 nM): 32.1% | cell viability ([9]; 1 nM): 102% | cell viability ([9]; 10 nM): 92.2% | cell viability ([9]; 100 nM): 97.8% | cell viability ([9]; 1000 nM): 95.3% | cell viability ([9]; 10000 nM): 84.8% | cell viability ([10]; 1 nM): 95.4% | cell viability ([10]; 10 nM): 100% | cell viability ([10]; 100 nM): 99.6% | cell viability ([10]; 1000 nM): 104% | cell viability ([10]; 10000 nM): 90%
